According to US9340590B2 (priority 2011, dated 2016):
Where two headings read alike, the source gives them in different places. Positions of bridges follow the written chain, without caps; N, C: chain ends. Non-standard residues stand in square brackets, D forms with d. Residues, ends and D or L forms follow the SMILES beside them. Phe(4-guanidino) = N=C(N)Nc1ccc(C[C@H](N)C(=O)O)cc1; Trp(1-Me) = Cn1cc(C[C@H](N)C(=O)O)c2ccccc21; Arg(Me2s) = CN=C(NC)NCCC[C@H](N)C(=O)O; Arg(Me) = CNC(=N)NCCC[C@H](N)C(=O)O; Dap = NC[C@H](N)C(=O)O

What was measured:
Experiment in all cases: cell-based
hNav1.3 = hNav1.3 (Homo sapiens, UniProt Q9NY46); conditions: IonWorks Quattro, read-out: IWQ Use Nav1.3
hNav1.5 = hNav1.5 (Homo sapiens, UniProt Q14524)
hNav1.7 = hNav1.7 (Homo sapiens, UniProt Q15858); format: cell-based; conditions: IonWorks Quattro, read-out: IWQ Use Nav1.7
[1] = use-dependent protocol, hNav1.3
[2] = IonWorks Quattro, use-dependent protocol, hNav1.5, read-out: IWQ Use Nav1.5
[3] = use-dependent protocol, hNav1.7
[4] = IonWorks Quattro, use-dependent block, hNav1.5, read-out: IWQ Use Nav1.5
[5] = clamped to −110 mV, depolarized to −10 mV, 5 min after compound, n=2

hNav1.7, sequence (Q15858 whole entry, looked up): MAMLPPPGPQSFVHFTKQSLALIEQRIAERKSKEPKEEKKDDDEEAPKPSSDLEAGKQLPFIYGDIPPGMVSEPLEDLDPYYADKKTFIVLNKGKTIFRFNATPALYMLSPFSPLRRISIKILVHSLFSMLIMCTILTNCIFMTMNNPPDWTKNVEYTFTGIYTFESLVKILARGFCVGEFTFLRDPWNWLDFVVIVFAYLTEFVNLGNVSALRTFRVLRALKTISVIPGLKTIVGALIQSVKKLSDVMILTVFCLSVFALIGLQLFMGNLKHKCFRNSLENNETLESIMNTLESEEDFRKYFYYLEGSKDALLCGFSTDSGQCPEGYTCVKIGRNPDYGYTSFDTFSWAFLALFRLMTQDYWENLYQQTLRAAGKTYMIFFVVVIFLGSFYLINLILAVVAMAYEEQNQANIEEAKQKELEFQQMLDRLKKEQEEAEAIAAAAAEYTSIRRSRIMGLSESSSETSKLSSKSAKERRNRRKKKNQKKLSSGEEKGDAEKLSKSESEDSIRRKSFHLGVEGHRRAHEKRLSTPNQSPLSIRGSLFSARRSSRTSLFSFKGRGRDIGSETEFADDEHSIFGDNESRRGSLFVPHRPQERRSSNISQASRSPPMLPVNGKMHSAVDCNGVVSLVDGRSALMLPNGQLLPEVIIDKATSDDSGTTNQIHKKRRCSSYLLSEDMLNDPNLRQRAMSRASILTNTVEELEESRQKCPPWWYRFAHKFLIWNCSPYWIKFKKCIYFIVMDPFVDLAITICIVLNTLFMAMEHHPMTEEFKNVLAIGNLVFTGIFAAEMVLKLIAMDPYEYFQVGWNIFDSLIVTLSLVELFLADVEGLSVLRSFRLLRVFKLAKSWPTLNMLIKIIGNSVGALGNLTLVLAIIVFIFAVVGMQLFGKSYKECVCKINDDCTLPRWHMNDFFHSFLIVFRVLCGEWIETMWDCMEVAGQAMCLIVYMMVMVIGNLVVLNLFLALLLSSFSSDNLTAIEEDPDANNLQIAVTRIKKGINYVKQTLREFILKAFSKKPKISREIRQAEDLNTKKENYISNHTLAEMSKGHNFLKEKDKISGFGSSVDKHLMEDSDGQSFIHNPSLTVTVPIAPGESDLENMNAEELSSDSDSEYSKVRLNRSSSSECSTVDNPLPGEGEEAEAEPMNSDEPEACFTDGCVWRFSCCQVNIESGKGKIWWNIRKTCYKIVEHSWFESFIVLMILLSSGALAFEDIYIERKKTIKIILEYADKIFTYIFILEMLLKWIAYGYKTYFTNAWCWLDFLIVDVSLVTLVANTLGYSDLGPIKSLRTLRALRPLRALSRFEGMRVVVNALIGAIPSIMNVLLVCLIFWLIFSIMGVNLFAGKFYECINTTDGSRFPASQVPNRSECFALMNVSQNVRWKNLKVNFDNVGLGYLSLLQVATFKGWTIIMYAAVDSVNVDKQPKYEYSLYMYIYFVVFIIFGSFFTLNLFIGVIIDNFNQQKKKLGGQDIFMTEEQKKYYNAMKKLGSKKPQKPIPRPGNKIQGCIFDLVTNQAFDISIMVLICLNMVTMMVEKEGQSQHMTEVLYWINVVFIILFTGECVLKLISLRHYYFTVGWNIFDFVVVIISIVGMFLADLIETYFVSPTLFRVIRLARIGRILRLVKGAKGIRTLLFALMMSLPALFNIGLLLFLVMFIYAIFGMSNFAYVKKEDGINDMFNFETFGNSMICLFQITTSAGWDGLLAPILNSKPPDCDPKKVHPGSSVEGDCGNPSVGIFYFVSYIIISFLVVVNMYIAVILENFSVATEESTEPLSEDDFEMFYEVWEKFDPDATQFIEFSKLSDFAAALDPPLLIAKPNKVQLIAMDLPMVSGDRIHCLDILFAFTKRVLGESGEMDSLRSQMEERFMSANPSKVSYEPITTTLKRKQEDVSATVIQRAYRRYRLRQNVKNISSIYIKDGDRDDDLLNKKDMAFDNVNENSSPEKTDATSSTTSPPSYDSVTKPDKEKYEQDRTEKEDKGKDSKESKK
hNav1.3, sequence (Q9NY46 whole entry, looked up): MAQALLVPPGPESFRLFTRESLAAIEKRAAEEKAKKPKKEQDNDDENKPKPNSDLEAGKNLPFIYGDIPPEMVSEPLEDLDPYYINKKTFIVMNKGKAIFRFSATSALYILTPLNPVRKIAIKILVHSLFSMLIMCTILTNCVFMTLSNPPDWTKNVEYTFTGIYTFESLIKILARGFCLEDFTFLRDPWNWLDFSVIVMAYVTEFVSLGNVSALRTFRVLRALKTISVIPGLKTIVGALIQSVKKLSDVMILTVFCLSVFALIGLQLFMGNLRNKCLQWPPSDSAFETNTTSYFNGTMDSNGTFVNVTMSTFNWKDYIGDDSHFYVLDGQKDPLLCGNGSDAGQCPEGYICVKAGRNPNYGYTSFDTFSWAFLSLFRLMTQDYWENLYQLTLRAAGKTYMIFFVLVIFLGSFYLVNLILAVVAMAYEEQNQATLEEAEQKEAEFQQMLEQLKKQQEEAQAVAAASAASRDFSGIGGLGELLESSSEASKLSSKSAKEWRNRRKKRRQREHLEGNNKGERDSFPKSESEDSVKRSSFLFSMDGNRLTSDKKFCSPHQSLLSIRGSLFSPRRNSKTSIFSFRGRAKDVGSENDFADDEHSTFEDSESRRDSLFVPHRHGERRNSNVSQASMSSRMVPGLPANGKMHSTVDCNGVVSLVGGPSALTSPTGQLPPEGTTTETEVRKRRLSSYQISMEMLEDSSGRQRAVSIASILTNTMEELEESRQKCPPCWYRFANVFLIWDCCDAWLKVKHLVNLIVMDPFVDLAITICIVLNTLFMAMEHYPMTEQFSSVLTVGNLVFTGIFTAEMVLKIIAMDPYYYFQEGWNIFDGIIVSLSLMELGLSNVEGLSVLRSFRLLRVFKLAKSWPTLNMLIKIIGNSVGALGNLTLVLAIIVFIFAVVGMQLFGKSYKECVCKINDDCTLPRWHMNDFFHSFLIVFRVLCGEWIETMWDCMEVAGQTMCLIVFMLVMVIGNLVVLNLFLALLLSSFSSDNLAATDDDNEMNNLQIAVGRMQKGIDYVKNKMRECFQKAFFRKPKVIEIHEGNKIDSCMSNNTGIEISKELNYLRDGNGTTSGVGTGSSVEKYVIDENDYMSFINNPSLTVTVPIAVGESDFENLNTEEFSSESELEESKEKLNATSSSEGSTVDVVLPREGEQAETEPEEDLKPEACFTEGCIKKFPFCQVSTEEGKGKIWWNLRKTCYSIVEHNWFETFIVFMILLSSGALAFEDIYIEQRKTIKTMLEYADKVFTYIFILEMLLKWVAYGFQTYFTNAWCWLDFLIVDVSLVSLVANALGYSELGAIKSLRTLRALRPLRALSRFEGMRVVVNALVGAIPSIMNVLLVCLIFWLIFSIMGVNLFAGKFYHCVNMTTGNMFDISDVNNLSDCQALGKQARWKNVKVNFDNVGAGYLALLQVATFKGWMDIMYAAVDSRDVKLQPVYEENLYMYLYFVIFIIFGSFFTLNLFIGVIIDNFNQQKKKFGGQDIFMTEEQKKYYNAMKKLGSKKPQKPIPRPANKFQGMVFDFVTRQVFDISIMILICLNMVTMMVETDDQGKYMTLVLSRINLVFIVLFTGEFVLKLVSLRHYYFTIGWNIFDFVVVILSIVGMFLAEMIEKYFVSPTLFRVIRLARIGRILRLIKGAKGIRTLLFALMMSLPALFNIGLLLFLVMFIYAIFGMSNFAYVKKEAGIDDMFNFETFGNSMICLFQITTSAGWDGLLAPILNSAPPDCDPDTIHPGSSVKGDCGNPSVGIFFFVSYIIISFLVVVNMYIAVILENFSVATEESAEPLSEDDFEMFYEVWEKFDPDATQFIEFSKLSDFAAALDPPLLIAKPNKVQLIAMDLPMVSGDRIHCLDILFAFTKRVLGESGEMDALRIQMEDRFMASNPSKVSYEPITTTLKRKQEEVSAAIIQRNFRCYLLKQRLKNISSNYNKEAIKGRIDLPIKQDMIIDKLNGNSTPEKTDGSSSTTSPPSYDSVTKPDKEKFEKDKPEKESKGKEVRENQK

Structure (SMILES)	IC50 (hNav1.3; use-dependent block, hNav1.3) [µM]	IC50 (hNav1.5; [4]) [µM]	IC50 (hNav1.7; use-dependent block, hNav1.7) [µM]	further results
CC[C@H](C)[C@@H]1NC(=O)[C@@H]2CSSC[C@@H]3NC(=O)[C@H](C(C)C)NC(=O)[C@H](CC(C)C)NC(=O)[C@H](CC(N)=O)NC(=O)[C@H](CO)NC(=O)[C@H](CCCNC(=N)N)NC(=O)[C@H](CSSC[C@H](NC(=O)[C@@H](N)CC(=O)O)C(=O)N[C@@H](CC(C)C)C(=O)NCC(=O)N[C@@H](Cc4ccccc4)C(=O)N[C@@H](CCSC)C(=O)N[C@@H](CCCNC(=N)N)C(=O)N[C@@H](CCCCN)C(=O)N2)NC(=O)[C@H](CSSC[C@@H](C(=O)N[C@@H](CCCCN)C(=O)N[C@@H](Cc2cn(C)c4ccccc24)C(=O)N[C@H](C(=O)N[C@@H](Cc2ccccc2)C(N)=O)C(C)C)NC(=O)[C@H](Cc2c[nH]c4ccccc24)NC(=O)[C@H](CCCCN)NC(=O)[C@H](Cc2c[nH]cn2)NC(=O)[C@H]([C@@H](C)O)NC(=O)[C@H](CCCNC(=N)N)NC(=O)[C@H](CO)NC3=O)NC(=O)[C@H](CCCCN)NC(=O)[C@H](CC(=O)O)NC(=O)[C@H](CC(N)=O)NC(=O)[C@H](CC(=O)O)NC(=O)[C@@H]2CCCN2C1=O [compound 695] (H-DCLGFMRKCIPDNDKCCRSNLVCSRTHKWCK[Trp(1-Me)]VF-NH2; disulfide 2-17, 9-23, 16-30)				IC50 (hNav1.3; [1]): 0.03 µM; IC50 (hNav1.5; [2]): > 5 µM; IC50 (hNav1.7; [3]): 0.03 µM
CC[C@H](C)[C@@H]1NC(=O)[C@@H]2CSSC[C@@H]3NC(=O)[C@H](C(C)C)NC(=O)[C@H](CC(C)C)NC(=O)[C@H](CC(N)=O)NC(=O)[C@@H]4CCCN4C(=O)[C@H](CCCNC(=N)N)NC(=O)[C@H](CSSC[C@H](NC(=O)[C@@H](N)CC(=O)O)C(=O)N[C@@H](CC(C)C)C(=O)NCC(=O)N[C@@H](C)C(=O)N[C@@H](Cc4ccccc4)C(=O)N[C@@H](CCCNC(=N)N)C(=O)N[C@@H](CCCCN)C(=O)N2)NC(=O)[C@H](CSSC[C@@H](C(=O)N[C@@H](CCCCN)C(=O)N[C@@H](Cc2ccc(O)cc2)C(=O)N[C@H](C(=O)N[C@@H](Cc2ccccc2)C(=O)O)C(C)C)NC(=O)[C@H](Cc2c[nH]c4ccccc24)NC(=O)[C@H](CCCNC(=N)N)NC(=O)[C@H](Cc2c[nH]cn2)NC(=O)[C@H]([C@@H](C)O)NC(=O)[C@H](CCCNC(=N)N)NC(=O)[C@H](CO)NC3=O)NC(=O)[C@H](CCCCN)NC(=O)[C@H](CC(=O)O)NC(=O)[C@H](CO)NC(=O)[C@H](CC(=O)O)NC(=O)[C@@H]2CCCN2C1=O [compound 849]	1.1	> 5	> 5	
CC[C@H](C)[C@@H]1NC(=O)[C@@H]2CSSC[C@@H]3NC(=O)[C@H](C(C)C)NC(=O)[C@H](CC(C)C)NC(=O)[C@H](CC(N)=O)NC(=O)[C@@H]4CCCN4C(=O)[C@H](CCCNC(=N)N)NC(=O)[C@H](CSSC[C@H](NC(=O)[C@@H](N)CC(=O)O)C(=O)N[C@@H](CC(C)C)C(=O)NCC(=O)N[C@@H](C)C(=O)N[C@@H](CCSC)C(=O)N[C@@H](CCCNC(=N)N)C(=O)N[C@@H](CCCCN)C(=O)N2)NC(=O)[C@H](CSSC[C@@H](C(=O)N[C@@H](CCCCN)C(=O)N[C@@H](Cc2ccc(O)cc2)C(=O)N[C@H](C(=O)N[C@@H](Cc2ccccc2)C(N)=O)C(C)C)NC(=O)[C@H](Cc2c[nH]c4ccccc24)NC(=O)[C@H](CCCNC(=NC)NC)NC(=O)[C@H](Cc2c[nH]cn2)NC(=O)[C@H]([C@@H](C)O)NC(=O)[C@H](CCCNC(=N)N)NC(=O)[C@H](CO)NC3=O)NC(=O)[C@H](CCCCN)NC(=O)[C@H](CC(=O)O)NC(=O)[C@H](CC(N)=O)NC(=O)[C@H](CC(=O)O)NC(=O)[C@@H]2CCCN2C1=O [compound 743] (H-DCLGAMRKCIPDNDKCCRPNLVCSRTH[Arg(Me2s)]WCKYVF-NH2; disulfide 2-17, 9-23, 16-30)	1.1	26.5	0.22	
CC[C@H](C)[C@@H]1NC(=O)[C@@H]2CSSC[C@@H]3NC(=O)[C@H](C(C)C)NC(=O)[C@H](CC(C)C)NC(=O)[C@H](CC(N)=O)NC(=O)[C@@H]4CCCN4C(=O)[C@H](CCCNC(=N)N)NC(=O)[C@H](CSSC[C@H](NC(=O)[C@@H](N)CC(=O)O)C(=O)N[C@@H](CC(C)C)C(=O)NCC(=O)N[C@@H](C)C(=O)N[C@@H](CCSC)C(=O)N[C@@H](CCCNC(=N)N)C(=O)N[C@@H](CCCCN)C(=O)N2)NC(=O)[C@H](CSSC[C@@H](C(=O)N[C@@H](CCCCN)C(=O)N[C@@H](Cc2ccc(O)cc2)C(=O)N[C@H](C(=O)N[C@@H](Cc2ccccc2)C(N)=O)C(C)C)NC(=O)[C@H](Cc2c[nH]c4ccccc24)NC(=O)[C@H](CN)NC(=O)[C@H](Cc2c[nH]cn2)NC(=O)[C@H]([C@@H](C)O)NC(=O)[C@H](CCCNC(=N)N)NC(=O)[C@H](CO)NC3=O)NC(=O)[C@H](CCCCN)NC(=O)[C@H](CC(=O)O)NC(=O)[C@H](CC(N)=O)NC(=O)[C@H](CC(=O)O)NC(=O)[C@@H]2CCCN2C1=O [compound 747] (H-DCLGAMRKCIPDNDKCCRPNLVCSRTH[Dap]WCKYVF-NH2; disulfide 2-17, 9-23, 16-30)	0.78	38.3	0.37	
CC[C@H](C)[C@@H]1NC(=O)[C@@H]2CSSC[C@@H]3NC(=O)[C@H](C(C)C)NC(=O)[C@H](CC(C)C)NC(=O)[C@H](CC(N)=O)NC(=O)[C@@H]4CCCN4C(=O)[C@H](CCCNC(=N)N)NC(=O)[C@H](CSSC[C@H](NC(=O)[C@@H](N)CC(=O)O)C(=O)N[C@@H](CC(C)C)C(=O)NCC(=O)N[C@@H](C)C(=O)N[C@@H](CCSC)C(=O)N[C@@H](CCCNC(=N)N)C(=O)N[C@@H](CCCCN)C(=O)N2)NC(=O)[C@H](CSSC[C@@H](C(=O)N[C@@H](CCCCN)C(=O)N[C@@H](Cc2ccc(O)cc2)C(=O)N[C@H](C(=O)N[C@@H](Cc2ccccc2)C(N)=O)C(C)C)NC(=O)[C@H](Cc2c[nH]c4ccccc24)NC(=O)[C@H](CCCNC(=N)NC)NC(=O)[C@H](Cc2c[nH]cn2)NC(=O)[C@H]([C@@H](C)O)NC(=O)[C@H](CCCNC(=N)N)NC(=O)[C@H](CO)NC3=O)NC(=O)[C@H](CCCCN)NC(=O)[C@H](CC(=O)O)NC(=O)[C@H](CC(N)=O)NC(=O)[C@H](CC(=O)O)NC(=O)[C@@H]2CCCN2C1=O [compound 745] (H-DCLGAMRKCIPDNDKCCRPNLVCSRTH[Arg(Me)]WCKYVF-NH2; disulfide 2-17, 9-23, 16-30)	0.5	40	0.25	
CC[C@H](C)[C@@H]1NC(=O)[C@@H]2CSSC[C@@H]3NC(=O)[C@H](C(C)C)NC(=O)[C@H](CC(C)C)NC(=O)[C@H](CC(N)=O)NC(=O)[C@@H]4CCCN4C(=O)[C@H](CCCNC(=N)N)NC(=O)[C@H](CSSC[C@H](NC(=O)[C@@H](N)CC(=O)O)C(=O)N[C@@H](CC(C)C)C(=O)NCC(=O)N[C@@H](C)C(=O)N[C@@H](CCSC)C(=O)N[C@@H](CCCNC(=N)N)C(=O)N[C@@H](CCCCN)C(=O)N2)NC(=O)[C@H](CSSC[C@@H](C(=O)N[C@@H](CCCCN)C(=O)N[C@@H](Cc2ccc(O)cc2)C(=O)N[C@H](C(=O)N[C@@H](Cc2ccccc2)C(N)=O)C(C)C)NC(=O)[C@H](Cc2c[nH]c4ccccc24)NC(=O)[C@H](Cc2ccc(NC(=N)N)cc2)NC(=O)[C@H](Cc2c[nH]cn2)NC(=O)[C@H]([C@@H](C)O)NC(=O)[C@H](CCCNC(=N)N)NC(=O)[C@H](CO)NC3=O)NC(=O)[C@H](CCCCN)NC(=O)[C@H](CC(=O)O)NC(=O)[C@H](CC(N)=O)NC(=O)[C@H](CC(=O)O)NC(=O)[C@@H]2CCCN2C1=O [compound 761] (H-DCLGAMRKCIPDNDKCCRPNLVCSRTH[Phe(4-guanidino)]WCKYVF-NH2; disulfide 2-17, 9-23, 16-30)	0.63	26.9	0.16	
CCC[C@@H]1NC(=O)CNC(=O)[C@H](CC(C)C)NC(=O)[C@@H](NC(=O)[C@@H](N)CC(=O)O)CSSC[C@@H]2NC(=O)[C@@H]3CSSC[C@@H](C(=O)N[C@@H](CCCCN)C(=O)N[C@@H](Cc4ccc(O)cc4)C(=O)N[C@H](C(=O)N[C@@H](Cc4ccccc4)C(N)=O)C(C)C)NC(=O)[C@H](Cc4c[nH]c5ccccc45)NC(=O)[C@H](CCCCN)NC(=O)[C@H](Cc4c[nH]cn4)NC(=O)[C@H]([C@@H](C)O)NC(=O)[C@H](CCCNC(=N)N)NC(=O)[C@H](CO)NC(=O)[C@H](CSSC[C@H](NC(=O)[C@H](CCCCN)NC(=O)[C@H](CCCNC(=N)N)NC(=O)[C@H](CC(C)C)NC1=O)C(=O)N[C@@H]([C@@H](C)CC)C(=O)N1CCC[C@H]1C(=O)N[C@@H](CC(=O)O)C(=O)N[C@@H](CC(N)=O)C(=O)N[C@@H](CC(=O)O)C(=O)N[C@@H](CCCCN)C(=O)N3)NC(=O)[C@H](C(C)C)NC(=O)[C@H](CC(C)C)NC(=O)[C@H](CC(N)=O)NC(=O)[C@@H]1CCCN1C(=O)[C@H](CCCNC(=N)N)NC2=O [compound 637]				IC50 (hNav1.3; [1]): 0.71 µM; IC50 (hNav1.5; [2]): 8 µM; IC50 (hNav1.7; [3]): 0.095 µM
CC[C@H](C)[C@@H]1NC(=O)[C@@H]2CSSC[C@@H]3NC(=O)[C@H](C(C)C)NC(=O)[C@H](CC(C)C)NC(=O)[C@H](CC(N)=O)NC(=O)[C@@H]4CCCN4C(=O)[C@H](CCCNC(=N)N)NC(=O)[C@H](CSSC[C@H](NC(=O)[C@@H](N)CC(=O)O)C(=O)N[C@@H](CC(C)C)C(=O)NCC(=O)N[C@@H](Cc4ccccc4)C(=O)N[C@@H](CCCNC(=N)N)C(=O)N[C@@H](CCCNC(=N)N)C(=O)N[C@@H](CCCCN)C(=O)N2)NC(=O)[C@H](CSSC[C@@H](C(=O)N[C@@H](CCCCN)C(=O)N[C@@H](Cc2ccc(O)cc2)C(=O)N[C@H](C(=O)N[C@@H](Cc2ccccc2)C(N)=O)C(C)C)NC(=O)[C@H](Cc2c[nH]c4ccccc24)NC(=O)[C@H](CCCCN)NC(=O)[C@H](Cc2cnc[nH]2)NC(=O)[C@H]([C@@H](C)O)NC(=O)[C@H](CCCNC(=N)N)NC(=O)[C@H](CO)NC3=O)NC(=O)[C@H](CCCCN)NC(=O)[C@H](CC(=O)O)NC(=O)[C@H](CC(N)=O)NC(=O)[C@H](CC(=O)O)NC(=O)[C@@H]2CCCN2C1=O [SEQ ID NO: 64] (H-DCLGFRRKCIPDNDKCCRPNLVCSRTHKWCKYVF-NH2; disulfide 2-17, 9-23, 16-30)				IC50 (hNav1.3; [5]): 5.9 µM; IC50 (hNav1.5; IWQ Use Nav1.5): 17.6 µM; IC50 (hNav1.7; [5]): 6.98 µM
